Results taken from patent publication US20240041842A1, “PHARMACEUTICAL COMPOSITION FOR INHIBITING CANCER METASTASIS” (INDUSTRY-ACADEMIC COOPERATION FOUNDATION, YONSEI UNIVERSITY, priority 2021, published 2024).

Columns and labels:
Type in all cases: cell-based, human
[1] = system: KRAS-mutant pancreatic cancer cells; test: Matrigel invasion assay, pancreatic cancer cell lines; conditions: 100 uM chloroquine, 24 hours
Description: FIG. 12C illustrates changes in matrigel invasiveness after treating the pancreatic cancer cell line with 100 uM chloroquine (CQ) for 24 hours, and the bright-field micrographs of cells infiltrating through the matrigel coated transwell membrane (top) and quantification results (bottom) are shown.
For the 2D invasion assay, the inserts were pre-coated with 300 μg/ml Matrigel (Coming, 354234). After staining with […] dye (Bio-Rad, 1450013), 1×10^5 live cells per 8-um-pore cell-culture insert (Costar. 3422) were seeded in 0.5% ACL medium. 10% ACL medium was added to the outside of the insert. In the case of lung cancer and pancreatic cancer cell lines, after inoculation in 1% RPMI medium, 20% RPMI medium was added to the outside of the insert. Plates were incubated for 24 hours at 37° C. After incubation, the insert was fixed with 3.7% PFA, washed, stained with 0.4% crystal violet, and the upper membrane was washed and dried.

[2] = system: LC3; test: Autophagic flux (LC3 Western blot, mRFP-GFP-LC3 lysosomal delivery assay); conditions: HBEC-KL cells; 50 uM chloroquine for 6 hours
[3] = system: SNAI1 gene; test: Real-time PCR of SNAI1 gene; conditions: HBEC-KL cell line; 50 uM chloroquine, 24 hours
Description: After synthesizing complementary DNA (cDNA) using the TOPscript·8 cDNA synthesis kit (Enzynomics, EZ0054), gRT-PCR was performed with TCPreal™ gRCR 2× PreMIX (SYBR Green with low ROX) (Enzynomics, RT501M). GAPDH and beta-actin were used for RNA normalization. qRT-PCR was performed with a StepOne Plus (Applied Biosystems) instrument.

[4] = system: Intracellular acetyl-CoA; test: Acetyl-CoA measurement; conditions: KRAS-mutant pancreatic cancer cells; 100 uM chloroquine, 24 hours
Description: Intracellular acetyl-CoA levels were calculated in the pmol range using the PicoProbe Acetyl-CoA Assay Kit (Biovision, K317). […] After correcting the background in all readings, the value of each sample was determined and normalized to the protein concentration of each sample.

[5] = system: acetylated Snail; test: Immunoprecipitation-immunoblot of acetylated Snail; conditions: KRAS-mutant pancreatic cancer cells; 100 uM chloroquine, 24 hours
Description: Cell lysates (1 μg protein) were incubated overnight at 4° C. on anti-FLAG® M2 Affinity Gel (Sigma, A2220) or anti-acetyl-lysine antibody coated agarose (ImmuneChem Pharmaceuticals, ICP0388). The immunoprecipitate was then washed three times in IP buffer, and the immunoprecipitated complex was dissolved and separated by boiling in IP buffer for 5 minutes.
For SDS-PAGE electrophoresis, the immunoprecipitated complex was transferred to a nitrocellulose membrane and the membrane was blocked and then incubated for 1 hour at room temperature with Primary antibody and secondary antibody (VeriBlot for IP Detection Reagent (HRP) (Abcam, #ab131366), and anti-mouse IgG tor IP (HRP) (Abeam, #ab131368)).
After washing 3 times, the membrane was incubated with the secondary antibody.

[6] = system: total protein acetylation; test: Western blot of total protein acetylation; conditions: HBEC-KL; 50 uM chloroquine, 24 hours; same effect = reduced
Description: Cells were harvested, washed with PBS, and lysed on ice with RIPA buffer containing protease and phophatase inhibitor cocktail (GenDEPOT). After 15 minutes of incubation, the cell lysates were centrifuged at 15,000 rpm at 4° C. for 10 minutes. Protein concentration was measured by Bradford assay (Bio-rad, 500-0006). Equal amounts of total protein were placed on an SDS gel electrophoresis and transferred to a PVDF membrane (Bio-rad). The membrane was blocked with 5% skim milk for 1 hour at room temperature and incubated overnight at 4° C. with primary antibody in a buffer containing 0.1% Tween-20. Subsequently, the membrane was washed three times with Tween-PBS buffer and incubated for 1 hour at room temperature using a secondary antibody diluted in blocking buffer containing 0.1% Tween-20. Subsequently, the membrane was washed three times for 10 minutes each using Tween-TBS. Densitometry of Western blots was measured using ImageJ software.

[7] = system: Snail; test: Western blot of Snail protein; conditions: HBEC-KL cell line; chloroquine 12 to 48 hours

CCN(CC)CCCC(C)Nc1ccnc2cc(Cl)ccc12 (stereo not shown) [CQ, chloroquine]
2D Matrigel transwell invasion [1]: reduced
LC3-II accumulation [2]: high levels
SNAI1 mRNA expression level [3]: no change
acetyl-CoA [4]: reduced
acetylated Snail [5]: reduced
overall protein acetylation [6]: the same effect
expression level of Snail protein [7]: reduced
